The source of these data is patent publication EP4707277A1, “NOVEL HETEROCYCLIC AMINE DERIVATIVES AND PHARMACEUTICAL COMPOSITION COMPRISING SAME” (Daewoong Pharmaceutical Co., Ltd., priority 2023, dated 2024).

One test has as its target T1, ITK (Homo sapiens, UniProt Q08881).
T1 construct: purchased Signalchem I13-11G-10
T1 sequence (Q08881 1-620): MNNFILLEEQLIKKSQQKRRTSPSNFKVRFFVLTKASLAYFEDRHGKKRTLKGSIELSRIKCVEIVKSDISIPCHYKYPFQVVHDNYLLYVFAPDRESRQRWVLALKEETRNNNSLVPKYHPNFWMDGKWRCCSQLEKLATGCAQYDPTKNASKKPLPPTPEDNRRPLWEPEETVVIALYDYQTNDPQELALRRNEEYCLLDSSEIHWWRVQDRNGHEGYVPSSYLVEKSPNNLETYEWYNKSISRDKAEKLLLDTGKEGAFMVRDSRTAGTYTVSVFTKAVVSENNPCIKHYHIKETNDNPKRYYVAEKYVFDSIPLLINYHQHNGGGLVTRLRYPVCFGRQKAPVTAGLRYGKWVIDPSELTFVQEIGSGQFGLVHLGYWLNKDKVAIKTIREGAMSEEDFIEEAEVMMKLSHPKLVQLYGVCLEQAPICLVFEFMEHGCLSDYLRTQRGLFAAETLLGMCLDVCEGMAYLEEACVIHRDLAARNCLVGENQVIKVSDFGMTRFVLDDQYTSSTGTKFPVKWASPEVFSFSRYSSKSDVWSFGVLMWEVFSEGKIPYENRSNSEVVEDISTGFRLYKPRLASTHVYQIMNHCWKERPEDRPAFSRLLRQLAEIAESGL
The test is described as follows: Inhibitory activity against ITK, ADP-Glo Kinase system (Promega). Format: biochemical. The method, boiled down:
(§1)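 IC50 values were fitted from kinase reactions run for 1 h at 30°C with either 1 mM ATP or ATP at Km (10 µM for BTK, 25 µM for ITK). Reactions used 0.2 µg/µl poly(Glu4,Tyr1), recombinant human enzyme (BTK 10 ng, ITK 4 ng per reaction) in Tris pH 7.5 Mn/Mg buffer with 1% DMSO. ADP formed was read by ADP-Glo luminescence.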
Background: ADP-Glo first removes unused ATP, then detects ADP through luciferase.

Another test has as its target T2, BTK (Homo sapiens, UniProt Q06187).
T2 construct: purchased Signalchem B10-10H
The test is described as follows: Inhibitory activity against BTK, ADP-Glo Kinase system (Promega). Format: biochemical. In short, it runs like this:
as §1

Setting [1] is: 1mM ATP, read-out: ITK IC50(nM) 1mM ATP.
[2] abbreviates: 1mM ATP, read-out: BTK IC50(nM) 1mM ATP.
Setting [3] is: Km ATP (ITK: 25uM), read-out: ITK IC50(nM) Km ATP.
[4] abbreviates: Km ATP (BTK: 10 uM), read-out: BTK IC50(nM) Km ATP.

Where two headings read alike, the source gives them in different places. A value given as a limit tells only on which side of the number the result lay.

T2 sequence (Q06187 whole entry): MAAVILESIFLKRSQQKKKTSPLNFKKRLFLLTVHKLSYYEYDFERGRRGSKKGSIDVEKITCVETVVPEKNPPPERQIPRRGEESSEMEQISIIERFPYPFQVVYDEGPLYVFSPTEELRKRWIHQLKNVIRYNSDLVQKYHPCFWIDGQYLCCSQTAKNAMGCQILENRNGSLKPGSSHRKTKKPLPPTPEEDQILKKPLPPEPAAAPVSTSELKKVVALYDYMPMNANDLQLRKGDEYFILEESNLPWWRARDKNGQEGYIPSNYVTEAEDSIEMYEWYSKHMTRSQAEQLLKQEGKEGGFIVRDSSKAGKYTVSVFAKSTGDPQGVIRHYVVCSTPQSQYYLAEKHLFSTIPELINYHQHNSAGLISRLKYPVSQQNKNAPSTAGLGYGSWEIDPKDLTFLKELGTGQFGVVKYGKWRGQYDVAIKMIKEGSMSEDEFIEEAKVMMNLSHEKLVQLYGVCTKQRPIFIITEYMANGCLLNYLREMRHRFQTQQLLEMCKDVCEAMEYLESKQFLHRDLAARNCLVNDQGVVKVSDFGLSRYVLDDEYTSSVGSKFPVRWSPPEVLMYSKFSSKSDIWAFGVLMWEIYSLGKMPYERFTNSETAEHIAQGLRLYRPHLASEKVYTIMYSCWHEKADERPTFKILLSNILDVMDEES

Take `C=CC(=O)N1C[C@@H](Oc2nc(Nc3ncc(C)s3)cc3c2ccn3CC2CC2)C[C@H]1C` [Example 98, 1-((2R,4S)-4-((1-(cyclopropylmethyl)-6-((5-methylthiazol-2-yl)amino)-1H-pyrrolo[3,2-c]pyridin-4-yl)oxy)-2-methylpyrrolidin-1-yl)prop-2-en-1-one]: the IC50 on ITK (setting [1]) and at BTK (setting [2]) was no more than 20 nM throughout.
In the case of `C=CC(=O)N1CC=C(c2nc(Nc3ncc(C)s3)cc3c2ccn3CC2CC2)CC1` [Example 4, 1-(4-(1-(cyclopropylmethyl)-6-((5-methylthiazol-2-yl)amino)-1H-pyrrolo[3,2-c]pyridin-4-yl)-3,6-dihydropyridin-1(2H)-yl)prop-2-en-1-one], the IC50 was 20 to 100 nM at ITK (setting [1]), no more than 20 nM at ITK (setting [3]), 20 to 100 nM on BTK (setting [2]) and no more than 20 nM on BTK (setting [4]).
Regarding `C=CC(=O)N1CC=C(c2nc(Nc3ccncn3)cc3c2ccn3C(C)C)CC1` [Example 43, 1-(4-(1-isopropyl-6-(pyrimidin-4-ylamino)-1H-pyrrolo[3,2-c]pyridin-4-yl)-3,6-dihydropyridin-1(2H)-yl)prop-2-en-1-one], the results for the IC50 at ITK (setting [1]) and at BTK (setting [2]) were 20 to 100 nM and no more than 20 nM, respectively.
The corresponding values for `C=CC(=O)N1C[C@H](F)[C@H](Oc2nc(Nc3ncc(C)s3)cc3c2ccn3CC2CC2)C1` [Example 107, 1-((3R,4S)-3-((1-(cyclopropylmethyl)-6-((5-methylthiazol-2-yl)amino)-1H-pyrrolo[3,2-c]pyridin-4-yl)oxy)-4-fluoropyrrolidin-1-yl)prop-2-en-1-one] are no more than 20 nM and no more than 20 nM.
For `Cc1cnc(Nc2cc3c(ccn3CC(C)C)c(O[C@H]3CCN(C(=O)/C=C/CN(C)C)C3)n2)s1` [Example 227, (S,E)-4-(dimethylamino)-1-(3-((1-isobutyl-6-((5-methylthiazol-2-yl)amino)-1H-pyrrolo[3,2-c]pyridin-4-yl)oxy)pyrrolidin-1-yl)but-2-en-1-one], the IC50 on ITK (setting [1]) and at BTK (setting [2]) was greater than 500 nM each time.
On to `C=CC(=O)N1C[C@H](F)[C@H](Oc2nc(Nc3ncc(C)s3)cc3c2ccn3CC(C)(C)O)C1` [Example 141, 1-((3S,4R)-3-fluoro-4-((1-(2-hydroxy-2-methylpropyl)-6-((5-methylthiazol-2-yl)amino)-1H-pyrrolo[3,2-c]pyridin-4-yl)oxy)pyrrolidin-1-yl)prop-2-en-1-one], for which the IC50 on ITK (setting [1]) and on BTK (setting [2]) was no more than 20 nM each time.
Regarding `C=CC(=O)Nc1cc(-c2nc(Nc3ncc(C)s3)cc3c2ccn3CC(F)(F)F)c(F)cc1F` [Example 77, N-(2,4-difluoro-5-(6-((5-methylthiazol-2-yl)amino)-1-(2,2,2-trifluoroethyl)-1H-pyrrolo[3,2-c]pyridin-4-yl)phenyl)acrylamide], the IC50 at ITK (setting [1]) was 20 to 100 nM; on BTK (setting [2]), no more than 20 nM.
`C=CC(=O)N1CC(C)(Oc2nc(Nc3ncc(C)s3)cc3c2ccn3C)C1` [Example 166, 1-(3-methyl-3-((1-methyl-6-((5-methylthiazol-2-yl)amino)-1H-pyrrolo[3,2-c]pyridin-4-yl)oxy)azetidin-1-yl)prop-2-en-1-one]: the IC50 on ITK (setting [1]) and at BTK (setting [2]) was no more than 20 nM in each case.
For the compound `C=CC(=O)Nc1cc(-c2nc(Nc3ncc(C)s3)cc3c2ccn3CC2CC2)c(F)cc1F` [Example 66, N-(5-(1-(cyclopropylmethyl)-6-((5-methylthiazol-2-yl)amino)-1H-pyrrolo[3,2-c]pyridin-4-yl)-2,4-difluorophenyl)acrylamide], the IC50 on ITK (setting [1]) is 20 to 100 nM; at ITK (setting [3]), no more than 20 nM; at BTK (setting [2]), no more than 20 nM; on BTK (setting [4]), no more than 20 nM.
Turning to `C=CC(=O)N1CC[C@@H](Oc2nc(Nc3ncc(C)s3)cc3c2ccn3C2CCCC2)C1` [Example 143, (R)-1-(3-((1-cyclopentyl-6-((5-methylthiazol-2-yl)amino)-1H-pyrrolo[3,2-c]pyridin-4-yl)oxy)pyrrolidin-1-yl)prop-2-en-1-one], the IC50 at ITK (setting [1]) and on BTK (setting [2]) was greater than 500 nM in each case.
Regarding `C=CC(=O)N1CC[C@@H]1COc1nc(Nc2ncc(C)s2)cc2c1ccn2CC(F)(F)F` [Example 208, (R)-1-(2-(((6-((5-methylthiazol-2-yl)amino)-1-(2,2,2-trifluoroethyl)-1H-pyrrolo[3,2-c]pyridin-4-yl)oxy)methyl)azetidin-1-yl)prop-2-en-1-one], the IC50 at ITK (setting [1]) and on BTK (setting [2]) was no more than 20 nM in each case.
Turning to `C=CC(=O)N1C2C=C(c3nc(Nc4ncc(C)s4)cc4c3ccn4C(C)C)CC1COC2` (stereo not drawn) [Example 27, 1-(7-(1-isopropyl-6-((5-methylthiazol-2-yl)amino)-1H-pyrrolo[3,2-c]pyridin-4-yl)-3-oxa-9-azabicyclo[3.3.1]non-6-en-9-yl)prop-2-en-1-one], the IC50 on ITK (setting [3]) and at BTK (setting [4]) was no more than 20 nM each time.
On to `C=CC(=O)N1CC[C@H](Oc2nc(Nc3ncc(C)s3)cc3c2ccn3CC(C)CC)C1` (stereo partly drawn) [Example 123, 1-((3S)-3-((1-(2-methylbutyl)-6-((5-methylthiazol-2-yl)amino)-1H-pyrrolo[3,2-c]pyridin-4-yl)oxy)pyrrolidin-1-yl)prop-2-en-1-one], for which the IC50 at ITK (setting [3]) and on BTK (setting [4]) was no more than 20 nM throughout.
As for `C=CC(=O)Nc1ccc(F)c(-c2nc(Nc3ncc(C)s3)cc3c2ccn3CC2CC2)c1` [Example 61, N-(3-(1-(cyclopropylmethyl)-6-((5-methylthiazol-2-yl)amino)-1H-pyrrolo[3,2-c]pyridin-4-yl)-4-fluorophenyl)acrylamide], the IC50 at ITK (setting [3]) and at BTK (setting [4]) was no more than 20 nM in each case.
On to `C=CC(=O)N1CC[C@H](Oc2nc(Nc3ncc(C)s3)cc3c2ccn3[C@@H](C)CC)C1` [Example 111, 1-((S)-3-((1-((S)-sec-butyl)-6-((5-methylthiazol-2-yl)amino)-1H-pyrrolo[3,2-c]pyridin-4-yl)oxy)pyrrolidin-1-yl)prop-2-en-1-one], for which the IC50 at ITK (setting [1]) and on BTK (setting [2]) was no more than 20 nM in each case.
For the compound `C=CC(=O)N1C[C@H](F)[C@H](Oc2nc(Nc3ncc(C)s3)cc3c2ccn3CCC)C1` [Example 159, 1-((3S,4R)-3-fluoro-4-((6-((5-methylthiazol-2-yl)amino)-1-propyl-1H-pyrrolo[3,2-c]pyridin-4-yl)oxy)pyrrolidin-1-yl)prop-2-en-1-one], the IC50 at ITK (setting [1]) and on BTK (setting [2]) was no more than 20 nM in each case.
`C=CC(=O)N1C[C@H](F)[C@H](Oc2nc(Nc3ncc(C)s3)cc3c2ccn3C)C1` [Example 131, 1-((3S,4R)-3-fluoro-4-((1-methyl-6-((5-methylthiazol-2-yl)amino)-1H-pyrrolo[3,2-c]pyridin-4-yl)oxy)pyrrolidin-1-yl)prop-2-en-1-one]: the IC50 at ITK (setting [1]) and on BTK (setting [2]) was no more than 20 nM in each case.
In the case of `C=CC(=O)N1CC=C(c2nc(Nc3ncc(C)s3)cc3c2ccn3C(F)F)CC1` [Example 21, 1-(4-(1-(difluoromethyl)-6-((5-methylthiazol-2-yl)amino)-1H-pyrrolo[3,2-c]pyridin-4-yl)-3,6-dihydropyridin-1(2H)-yl)prop-2-en-1-one], the half-inhibitory concentration (IC50) on ITK (setting [3]) and on BTK (setting [4]) was no more than 20 nM throughout.
As to `C=CC(=O)Nc1cc(-c2nc(Nc3ncc(C)s3)cc3c2ccn3CC(F)F)ccc1C` [Example 74, N-(5-(1-(2,2-difluoroethyl)-6-((5-methylthiazol-2-yl)amino)-1H-pyrrolo[3,2-c]pyridin-4-yl)-2-methylphenyl)acrylamide], the IC50 at ITK (setting [3]) and on BTK (setting [4]) was no more than 20 nM each time.

In general, IC50 refers to the point on the concentration scale where inhibition reaches its midpoint.
